What was measured:
Assay in all cases: relative viability (nuclei count vs DMSO), 5 days (fraction); higher = more cells survive
Vorinostat + Luminespib = compound: O=C(CCCCCCC(=O)Nc1ccccc1)NO [Vorinostat] + CCNC(=O)c1noc(-c2cc(C(C)C)c(O)cc2O)c1-c1ccc(CN2CCOCC2)cc1 [Luminespib] (partner 0.01 µM)
Procedure, shortened: (§1)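 Lung cancer cell lines in 1536-well plates were dosed by pin tool the day after seeding, either with one drug alone or with a fixed anchor-drug dose plus five library-drug doses (not always all listed) in √10 steps. After 5 days, cells were fixed and their nuclei stained in one step (final 0.05% Triton X-100, 1% formaldehyde, 1 ug/ml Hoechst), then counted on 4× images. Relative viability is the nuclei count in treated wells divided by that in vehicle wells. Values are medians of duplicate plates.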

Vorinostat + Palbociclib = compound: O=C(CCCCCCC(=O)Nc1ccccc1)NO [Vorinostat] + CC(=O)c1c(C)c2cnc(Nc3ccc(N4CCNCC4)cn3)nc2n(C2CCCC2)c1=O [Palbociclib] (partner 0.5 µM)
Procedure, shortened: as §1

Vorinostat + Crizotinib = compound: O=C(CCCCCCC(=O)Nc1ccccc1)NO [Vorinostat] + C[C@@H](Oc1cc(-c2cnn(C3CCNCC3)c2)cnc1N)c1c(Cl)ccc(F)c1Cl [Crizotinib] (partner 1 µM)
Procedure, shortened: as §1

Vorinostat + Pemetrexed = compound: O=C(CCCCCCC(=O)Nc1ccccc1)NO [Vorinostat] + Nc1nc2[nH]cc(CCc3ccc(C(=O)N[C@@H](CCC(=O)O)C(=O)O)cc3)c2c(=O)[nH]1 [Pemetrexed] (partner 0.2 µM)
Procedure, shortened: as §1

Vorinostat + Olaparib = compound: O=C(CCCCCCC(=O)Nc1ccccc1)NO [Vorinostat] + O=C(c1cc(Cc2n[nH]c(=O)c3ccccc23)ccc1F)N1CCN(C(=O)C2CC2)CC1 [Olaparib] (partner 8 µM)
Procedure, shortened: as §1

Cell Line	relative viability (Vorinostat + Luminespib; first compound 0.253 µM)	relative viability (Vorinostat + Luminespib; first compound 0.8 µM)	relative viability (Vorinostat + Luminespib; first compound 2.53 µM)	relative viability (Vorinostat + Luminespib; first compound 8 µM)	relative viability (Vorinostat + Palbociclib; first compound 0.253 µM)	relative viability (Vorinostat + Palbociclib; first compound 0.8 µM)	relative viability (Vorinostat + Palbociclib; first compound 2.53 µM)	relative viability (Vorinostat + Palbociclib; first compound 8 µM)	relative viability (Vorinostat + Crizotinib; first compound 0.253 µM)	relative viability (Vorinostat + Crizotinib; first compound 0.8 µM)	relative viability (Vorinostat + Crizotinib; first compound 2.53 µM)	relative viability (Vorinostat + Crizotinib; first compound 8 µM)	relative viability (Vorinostat + Pemetrexed; first compound 0.253 µM)	relative viability (Vorinostat + Pemetrexed; first compound 0.8 µM)	relative viability (Vorinostat + Pemetrexed; first compound 2.53 µM)	relative viability (Vorinostat + Pemetrexed; first compound 8 µM)	relative viability (Vorinostat + Olaparib; first compound 0.253 µM)	relative viability (Vorinostat + Olaparib; first compound 0.8 µM)	relative viability (Vorinostat + Olaparib; first compound 2.53 µM)	relative viability (Vorinostat + Olaparib; first compound 8 µM)
CAL-12T	0.555	0.464	0.383	0.134	0.61	0.386	0.182	0.0984	0.901	0.443	0.207	0.0708	1.36	1.31	1.08	0.126	0.82	0.824	0.532	0.138
NCI-H2009	1.04	0.935	0.752	0.144	0.267	0.25	0.171	0.0986	0.992	0.983	0.457	0.0597	0.993	0.955	0.666	0.131	0.729	0.582	0.395	0.0928
EMC-BAC-2	1.13	1.13	0.484	0.182	0.49	0.425	0.254	0.203	0.817	0.558	0.166	0.107	0.377	0.368	0.26	0.208	0.448	0.382	0.216	0.139
ABC-1	1.19	0.284	0.239	0.187	0.696	0.563	0.344	0.137	1.11	0.383	0.131	0.0777	–	–	–	–	1.02	1.3	0.78	0.196
LK-2	0.207	0.171	0.152	0.132	0.724	0.585	0.104	0.0605	0.227	0.237	0.175	0.0931	0.278	0.262	0.138	0.036	0.705	0.62	0.309	0.0471
LC-2-ad	1.11	0.918	0.367	0.208	0.566	0.455	0.331	0.186	0.368	0.361	0.268	0.178	0.273	0.268	0.263	0.19	0.706	0.541	0.267	0.19
ChaGo-K-1	0.82	0.804	0.417	0.165	0.943	0.874	0.529	0.182	1.23	0.98	0.408	0.261	0.254	0.26	0.254	0.218	0.46	0.34	0.219	0.141
201T	1.1	1.09	0.82	0.281	0.363	0.357	0.379	0.242	1.12	1.03	1.02	0.317	0.327	0.323	0.253	0.25	0.852	0.814	0.523	0.255
NCI-H1563	0.587	0.496	0.433	0.416	–	–	–	–	0.796	0.824	0.469	0.492	0.877	0.651	0.708	0.384	–	–	–	–
RERF-LC-KJ	1.22	0.883	0.308	0.278	1.09	0.929	0.333	0.211	0.813	0.744	0.448	0.156	0.472	0.39	0.333	0.212	0.826	0.715	0.228	0.266
NCI-H2342	0.817	0.589	0.499	0.391	0.529	0.502	0.58	0.488	–	–	–	–	0.834	0.832	0.68	0.306	0.467	0.496	0.308	0.269
LOU-NH91	0.376	0.417	0.329	0.283	0.533	0.515	0.512	0.384	0.755	0.746	0.599	0.362	0.362	0.324	0.387	0.351	0.959	0.832	0.587	0.404
NCI-H1944	0.716	0.573	0.304	0.147	0.31	0.272	0.176	0.118	0.965	0.631	0.292	0.125	0.585	0.448	0.311	0.135	0.367	0.33	0.166	0.114
HCC-366	–	–	–	–	0.345	0.182	0.0412	0.0283	0.217	0.1	0.0143	0.0124	0.169	0.174	0.0867	0.0396	0.249	0.116	0.0308	0.0193
SW 1573	0.212	0.381	0.222	0.0808	0.433	0.305	0.212	0.0703	0.845	0.665	0.297	0.156	1.2	1.05	0.346	0.0659	0.745	0.399	0.212	0.0539
SK-MES-1	1.01	0.774	0.423	0.178	0.377	0.453	0.418	0.222	1.13	1.06	0.495	0.157	1.08	1.07	0.553	0.207	0.84	0.774	0.327	0.181
NCI-H1993	0.874	0.831	0.656	0.4	0.715	0.775	0.499	0.362	0.836	0.932	0.531	0.653	0.594	0.492	0.503	0.344	0.919	1.02	0.556	0.383
NCI-H1703	–	–	–	–	–	–	–	–	0.977	0.716	0.298	0.113	–	–	–	–	0.407	0.51	0.625	0.157

Cell Line	relative viability (Vorinostat + Luminespib; first compound 0.253 µM)	relative viability (Vorinostat + Luminespib; first compound 0.8 µM)	relative viability (Vorinostat + Luminespib; first compound 2.53 µM)	relative viability (Vorinostat + Luminespib; first compound 8 µM)	relative viability (Vorinostat + Palbociclib; first compound 0.253 µM)	relative viability (Vorinostat + Palbociclib; first compound 0.8 µM)	relative viability (Vorinostat + Palbociclib; first compound 2.53 µM)	relative viability (Vorinostat + Palbociclib; first compound 8 µM)	relative viability (Vorinostat + Crizotinib; first compound 0.253 µM)	relative viability (Vorinostat + Crizotinib; first compound 0.8 µM)	relative viability (Vorinostat + Crizotinib; first compound 2.53 µM)	relative viability (Vorinostat + Crizotinib; first compound 8 µM)	relative viability (Vorinostat + Pemetrexed; first compound 0.253 µM)	relative viability (Vorinostat + Pemetrexed; first compound 0.8 µM)	relative viability (Vorinostat + Pemetrexed; first compound 2.53 µM)	relative viability (Vorinostat + Pemetrexed; first compound 8 µM)	relative viability (Vorinostat + Olaparib; first compound 0.253 µM)	relative viability (Vorinostat + Olaparib; first compound 0.8 µM)	relative viability (Vorinostat + Olaparib; first compound 2.53 µM)	relative viability (Vorinostat + Olaparib; first compound 8 µM)
HARA	0.693	0.689	0.118	0.053	0.32	0.295	0.184	0.133	1.15	0.932	0.136	0.0954	0.239	0.217	0.205	0.125	0.966	0.454	0.0979	0.0743
COR-L23	0.64	0.305	0.107	0.0643	0.281	0.19	0.0948	0.0728	0.542	0.25	0.0669	0.0606	0.2	0.182	0.148	0.12	0.301	0.246	0.0921	0.0666
NCI-H1355	0.894	0.681	0.383	0.184	0.411	0.356	0.214	0.138	1.19	0.963	0.398	0.138	1.09	1.01	0.536	0.246	0.797	0.565	0.211	0.128
NCI-H1437	1.14	1.07	0.712	0.187	0.303	0.265	0.172	0.124	0.876	0.894	0.429	0.0993	0.308	0.3	0.187	0.151	0.625	0.466	0.199	0.16
NCI-H2023	1.04	0.534	0.188	0.0701	0.467	0.375	0.199	0.0512	0.716	0.525	0.188	0.0669	0.233	0.182	0.103	0.067	0.403	0.296	0.113	0.0691
HOP-62	0.942	0.904	0.396	0.103	0.492	0.409	0.177	0.0765	0.972	0.831	0.251	0.0671	0.393	0.28	0.212	0.0997	0.468	0.35	0.16	0.0785
NCI-H2087	0.226	0.148	0.157	0.127	0.277	0.107	0.0624	0.0734	0.838	0.727	0.236	0.177	0.637	0.617	0.347	0.132	0.717	0.52	0.13	0.069
SK-LU-1	0.21	0.234	0.176	0.196	0.438	0.363	0.32	0.177	0.921	0.672	0.43	0.164	0.936	0.807	0.64	0.179	0.417	0.399	0.323	0.14
NCI-H1755	0.442	0.661	0.572	0.166	0.431	0.463	0.3	0.209	0.942	0.883	0.233	0.154	0.458	0.382	0.285	0.177	0.953	0.86	0.307	0.205
NCI-H1395	0.912	0.829	0.643	0.346	0.714	0.688	0.537	0.309	–	–	–	–	0.733	0.746	0.533	0.321	0.513	0.465	0.436	0.318
SW 900	0.172	0.161	0.16	0.133	0.513	0.526	0.219	0.136	–	–	–	–	0.502	0.483	0.308	0.147	0.901	0.589	0.192	0.113
NCI-H1793	0.206	0.187	0.159	0.146	0.283	0.279	0.213	0.159	–	–	–	–	1.26	0.869	0.654	0.175	1.16	0.937	0.358	0.111
NCI-H727	0.25	0.378	0.311	0.341	0.688	0.633	0.606	0.51	0.962	0.687	0.299	0.214	–	–	–	–	0.682	0.745	0.525	0.401
A549	–	–	–	–	–	–	–	–	0.528	0.107	0.054	0.0379	–	–	–	–	0.278	0.177	0.0609	0.0236
HCC-78	–	–	–	–	0.467	0.518	0.438	0.344	0.319	0.229	0.117	0.137	0.888	0.852	0.875	0.868	0.778	0.615	0.221	0.201
NCI-H596	0.933	1.05	0.476	0.265	–	–	–	–	1.05	0.945	0.517	0.31	0.503	0.465	0.412	0.346	0.725	0.512	0.326	0.204
NCI-H522	1.44	0.972	0.361	0.259	1.2	0.879	0.616	0.252	–	–	–	–	1.22	1.05	1.01	0.262	0.778	0.654	0.318	0.168
IA-LM	–	–	–	–	–	–	–	–	0.751	0.743	0.152	0.0423	–	–	–	–	0.911	0.701	0.405	0.0749

Source: the supplement of paper PMC10307832
